Results on 6 compounds are retold here after article PMC6445240, “Design, synthesis and evaluation of ^18F-labeled cationic carbonic anhydrase IX inhibitors for PET imaging” (Journal of Enzyme Inhibition and Medicinal Chemistry, 2017).

For one data set, the target named is CA-IV (Homo sapiens, UniProt P22748). As to the kind of experiment: stopped-flow CO2 hydration assay, CA-IV. The data set is classed as biochemical. As to conditions: errors 5–10% from three assays, read-out: Inhibition constant (Ki) CA-IV.
Chain of CA-IV (P22748 19-312): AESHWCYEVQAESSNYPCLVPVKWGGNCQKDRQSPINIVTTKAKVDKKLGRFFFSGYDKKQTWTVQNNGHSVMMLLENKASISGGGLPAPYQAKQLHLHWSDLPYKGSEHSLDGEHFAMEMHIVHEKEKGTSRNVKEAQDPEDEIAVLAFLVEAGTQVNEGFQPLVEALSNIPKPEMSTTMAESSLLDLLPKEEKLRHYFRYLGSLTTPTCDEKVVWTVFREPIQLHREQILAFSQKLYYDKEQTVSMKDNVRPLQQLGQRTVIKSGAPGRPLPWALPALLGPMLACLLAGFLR
For another data set, the target named is CA-I (Homo sapiens, UniProt P00915). The data set can be described thus: stopped-flow CO2 hydration assay, CA-I. The format is biochemical. The conditions noted are these: errors 5–10% from three assays, read-out: Inhibition constant (Ki) CA-I.
Chain of CA-I (P00915 whole entry): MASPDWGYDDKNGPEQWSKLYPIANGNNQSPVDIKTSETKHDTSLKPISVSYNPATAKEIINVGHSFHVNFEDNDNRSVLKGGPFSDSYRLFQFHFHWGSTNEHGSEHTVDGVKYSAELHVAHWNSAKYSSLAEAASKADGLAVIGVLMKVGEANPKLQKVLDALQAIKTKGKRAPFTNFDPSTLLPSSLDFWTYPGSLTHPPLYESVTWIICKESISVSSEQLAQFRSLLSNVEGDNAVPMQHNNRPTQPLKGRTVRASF
The target of another data set is CA-II (Homo sapiens, UniProt P00918). The data set can be described thus: stopped-flow CO2 hydration assay, CA-II. The format is biochemical. The conditions noted are these: errors 5–10% from three assays, read-out: Inhibition constant (Ki) CA-II.
A further data set has as its target CA-IX (Homo sapiens, UniProt Q16790). As to the kind of experiment: stopped-flow CO2 hydration assay, CA-IX. The format is biochemical. As to conditions: errors 5–10% from three assays, read-out: Inhibition constant (Ki) CA-IX.

Structures can show the parent of a compound that is named as a salt. Where only a bound is given, the exact number is not on record here.

What is called melting point is the temperature of the solid-liquid transition. Turning to `C[N+](C)(Cc1ccc(F)cc1)Cc1ccc(C(=O)NCc2cccc(S(N)(=O)=O)c2)cc1` (as salt: bromide) [Compound 1, N-4-[[[3-(aminosulfonyl)benzyl]amino]carbonyl] benzyl-N,N-dimethyl-4-fluorobenzylammonium bromide], the melting point came out at 226 °C.
On the same count and under the same terms, the same measure for `C[N+](C)(Cc1ccc(F)cc1)Cc1ccc(C(=O)NCCc2ccc(S(N)(=O)=O)cc2)cc1` (as salt: bromide) [Compound 2, N-4-[[[2-[4-(aminosulfonyl)phenyl]ethyl]amino]carbonyl]benzyl-N,N-dimethyl-4-fluorobenzylammonium bromide]: 215 °C; for `C[N+](C)(Cc1ccc(F)cc1)Cc1ccc(C(=O)NCc2ccc(S(N)(=O)=O)cc2)cc1` (as salt: bromide) [Compound 3, N-4-[[[4-(aminosulfonyl)benzyl]amino]carbonyl] benzyl-N,N-dimethyl-4-fluorobenzylammonium bromide]: 228 °C.
By Ki is commonly meant a dissociation constant, usually derived from enzyme kinetics or from competition with a known ligand. With `C[N+](C)(Cc1ccc(F)cc1)Cc1ccc(C(=O)NCc2cccc(S(N)(=O)=O)c2)cc1` [Compound 1, N-4-[[[3-(aminosulfonyl)benzyl]amino]carbonyl] benzyl-N,N-dimethyl-4-fluorobenzylammonium bromide], the inhibitory constant (Ki) is greater than 50000 nM at CA-IV, 890 nM on CA-I, 720 nM at CA-II and 440 nM at CA-IX.
For `C[N+](C)(Cc1ccc(F)cc1)Cc1ccc(C(=O)NCCc2ccc(S(N)(=O)=O)cc2)cc1` [Compound 2, N-4-[[[2-[4-(aminosulfonyl)phenyl]ethyl]amino]carbonyl]benzyl-N,N-dimethyl-4-fluorobenzylammonium bromide], the Ki on CA-IV was found to be 9540 nM; on CA-I it was 520 nM; at CA-II it was 70 nM; at CA-IX, 220 nM.
The like results for `C[N+](C)(Cc1ccc(F)cc1)Cc1ccc(C(=O)NCc2ccc(S(N)(=O)=O)cc2)cc1` [Compound 3, N-4-[[[4-(aminosulfonyl)benzyl]amino]carbonyl] benzyl-N,N-dimethyl-4-fluorobenzylammonium bromide] were, in that order, 3630 nM, 780 nM, 480 nM and 960 nM.
